# In patent publication US10676462B2, “Quinoline derivative” (ONO PHARMACEUTICAL CO., LTD., priority 2013, dated 2020):
# Target: T1, Axl enzyme (Homo sapiens, UniProt P30530)
# T1 construct: a solution containing 400 ng/mL Axl enzyme was prepared
# T1 sequence (P30530 26-894): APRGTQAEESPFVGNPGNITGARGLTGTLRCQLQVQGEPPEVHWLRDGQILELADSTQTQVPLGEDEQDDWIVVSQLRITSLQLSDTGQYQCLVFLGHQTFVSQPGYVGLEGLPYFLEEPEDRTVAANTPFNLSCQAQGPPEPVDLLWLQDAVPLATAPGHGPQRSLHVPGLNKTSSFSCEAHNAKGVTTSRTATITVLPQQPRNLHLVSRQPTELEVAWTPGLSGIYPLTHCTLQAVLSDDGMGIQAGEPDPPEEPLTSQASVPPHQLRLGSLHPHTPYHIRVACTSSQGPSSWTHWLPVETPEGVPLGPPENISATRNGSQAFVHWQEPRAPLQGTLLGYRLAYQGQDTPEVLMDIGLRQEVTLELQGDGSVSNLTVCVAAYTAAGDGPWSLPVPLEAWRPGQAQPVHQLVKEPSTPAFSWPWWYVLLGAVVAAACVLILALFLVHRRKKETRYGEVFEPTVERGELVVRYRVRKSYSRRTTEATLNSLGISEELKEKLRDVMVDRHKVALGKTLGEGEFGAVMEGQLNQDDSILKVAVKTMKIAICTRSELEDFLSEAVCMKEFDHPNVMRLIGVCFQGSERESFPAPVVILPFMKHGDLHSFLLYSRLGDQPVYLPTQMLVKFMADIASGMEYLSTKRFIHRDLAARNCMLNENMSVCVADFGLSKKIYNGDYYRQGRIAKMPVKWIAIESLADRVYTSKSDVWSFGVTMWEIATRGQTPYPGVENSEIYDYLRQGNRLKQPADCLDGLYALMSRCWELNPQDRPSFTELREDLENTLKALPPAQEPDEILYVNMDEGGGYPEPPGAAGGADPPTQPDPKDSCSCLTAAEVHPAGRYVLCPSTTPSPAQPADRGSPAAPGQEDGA
# Experiment: Measurement of an Axl inhibitory activity (LanthaScreen TR-FRET, in vitro test)
# Assay type: biochemical
# Protocol: Biological Example 1: Measurement of an Axl Inhibitory Activity (In Vitro Test)
# An Axl enzyme inhibitory activity was measured by using LanthaScreen (registered trademark) system (Invitrogen) based on the attached instruction. The reagents used are shown below.
# Reaction buffer solution: a solution containing 50 mmol/L HEPES (pH7.5), 0.01% Brij35, 10 mmol/L MgCl2 and 1 mmol/L EGTA was prepared by using purified water.
# Test substance solution: a solution containing a test compound of 5-fold concentration with respect to the final concentration was prepared by 20-fold diluting a DMSO solution of test compound of each concentration with the reaction buffer solution.
# Enzyme solution: a solution containing 400 ng/mL Axl enzyme was prepared by using the reaction buffer solution.
# Substrate solution: a solution containing 45 μmmol/L ATP and 500 nmmol/L Fluorescein-Poly GT (Invitrogen) was prepared by using the reaction buffer solution.
# Detection solution: a solution containing 20 mM EDTA and 4 nM PY20 (Invitrogen) was prepared by using Dilution B (Invitrogen).
# A 10 mmol/L DMSO solution of the test compound was dispensed into a 96-well plate (Nunc), and, furthermore, a 3-fold dilution series was prepared using DMSO. In each well of the 96-well plate for measurement, 5 μL each of the reaction buffer solution containing DMSO was added to a Blank group and a medium group, and 5 μL of the test substance solution was added to the test substance group, respectively. Next, 10 μL/well of the reaction buffer solution was added to the Blank group, and 10 μL/well each of the enzyme solution was added to the medium group and the test compound group, followed by stirring at room temperature for 10 min. After the completion of stirring, 10 μL each of the substrate solution was added into each well, followed by stirring at room temperature with light shielded for one hour. After the completion of reaction, 25 μL each of the detection solution was added to each well, and stood still at room temperature with light shielded for 30 min. After standing sill, fluorescence intensity at 520 nm and 495 nm at the time of irradiation with exciting light of 340 nm was measured by using Analyst GT (Molecular Devices). The phosphorylation of the artificial substrate was quantified by Time-resolved Fluorescence Resonance Energy Transfer (TR-FRET). TR-FRET ratio was calculated by dividing 520 nm fluorescence signal by 495 nm fluorescence signal for each well, and the inhibition rate (%) in the test compound group was calculated based on the following mathematical formula. Inhibition rate (%)=[1−(TR-FRET ratio of test compound group−A)/(B−A)×100 [Math. 1] A: average value of TR-FRET ratios of Blank group B: average value of TR-FRET ratios of medium group
# Values of 50% inhibition rate (IC50 values) of the test compound were calculated from the inhibition curve based on the inhibition rate of the test compounds in each concentration.
row,SMILES,IC50
1,"O=C1CCCc2c1cc(C(=O)Nc1ccc(Oc3ccnc4cc(OCCCN5CCOCC5)ccc34)cn1)c(=O)n2-c1ccccc1 [Example 17(2), N-[5-({7-[3-(4-morpholinyl)propoxy]-4-quinolinyl}oxy)-2-pyridinyl]2,5-dioxo-1-phenyl-1,2,5,6,7,8-hexahydro-3-quinolinecarboxamide]",4.4 nM
2,"COc1cc2nccc(Oc3ccc(NC(=O)c4cc5c(n(-c6ccccc6)c4=O)CCCC5=O)nc3)c2cc1OC [Example 5, N-{5-[(6,7-dimethoxy-4-quinolinyl)oxy]-2-pyridinyl}-2,5-dioxo-1-phenyl-1,2,5,6,7,8-hexahydro-3-quinolinecarboxamide]",2.2 nM
3,"COc1cc2nccc(Oc3ccc(NC(=O)c4cc5c(n(-c6ccccc6)c4=O)CCCC5=O)c(C)c3)c2cc1OC [Example 23(2), N-{4-[(6,7-dimethoxy-4-quinolinyl)oxy]-2-methylphenyl}-2,5-dioxo-1-phenyl-1,2,5,6,7,8-hexahydro-3-quinolinecarboxamide]",1.1 nM
4,"COc1cc2nccc(Oc3ccc(NC(=O)c4cc5c(n(-c6ccccc6)c4=O)CC(C)(C)CC5=O)nc3)c2cc1OC [Example 5(1), N-{5-[(6,7-dimethoxy-4-quinolinyl)oxy]-2-pyridinyl}-7,7-dimethyl-2,5-dioxo-1-phenyl-1,2,5,6,7,8-hexahydro-3-quinolinecarboxamide]",5.6 nM
